What was measured:
Format in all cases: toxicity, cell-based
HEK-293T = test: Incucyte cell viability with HEK293T; details: human, 10 µM, compound concentration 10 uM
Fibroblast = test: Incucyte cell viability with human fibroblast; details: 10 µM, compound concentration 10 uM
U2OS = test: Incucyte cell viability with U2OS; details: human, 10 µM, compound concentration 10 uM
[1] = 6 h, replicate number 2, timepoint 6 hours
[2] = 12 h, replicate number 2, timepoint 12 hours
[3] = 18 h, replicate number 2, timepoint 18 hours
[4] = 24 h, replicate number 2, timepoint 24 hours
[5] = 18 h, replicate number 1, timepoint 18 hours
[6] = 24 h, replicate number 1, timepoint 24 hours
[7] = 0 h, replicate number 1, timepoint 0 hours
[8] = 0 h, replicate number 2, timepoint 0 hours
[9] = 6 h, replicate number 1, timepoint 6 hours
[10] = 12 h, replicate number 1, timepoint 12 hours
Further: unitless GR value; below 1 slowed growth and below 0 cell loss.

SMILES	Growth Rate (HEK-293T; [1])	Growth Rate (HEK-293T; [2])	Growth Rate (HEK-293T; [3])	Growth Rate (Fibroblast; [1])	Growth Rate (Fibroblast; [5])	Growth Rate (Fibroblast; [6])	Growth Rate (U2OS; [7])	Growth Rate (U2OS; [8])	Growth Rate (U2OS; [9])	Growth Rate (U2OS; [1])	Growth Rate (U2OS; [10])	Growth Rate (U2OS; [2])	Growth Rate (U2OS; [5])	Growth Rate (U2OS; [3])	Growth Rate (U2OS; [4])	Growth Rate (HEK-293T; [8])	Growth Rate (HEK-293T; [9])	Growth Rate (Fibroblast; [9])	Growth Rate (Fibroblast; [2])	Growth Rate (Fibroblast; [7])	other results
CN(C)[C@H]1CN(C2CCc3cccc(F)c32)C[C@@H]1c1ccc(N2CCN(S(C)(=O)=O)CC2)cc1 (stereo partly specified)	0.35	0.71	0.89	0.88	0.68	0.75	-0.44	-0.68	0.58	0.61	0.63	0.83	0.87	0.9	0.98						Growth Rate (HEK-293T; [4]): 0.8; Growth Rate (U2OS; [6]): 0.97
CS(=O)(=O)c1ccc(C(=O)Nc2ccc(Cl)c(-c3ccccn3)c2)c(Cl)c1 [VISMODEGIB]	0.75	0.84	0.92	0.96	0.67	0.29		-1	0.94	0.8		0.78		0.84	0.86	0.86	0.99	0.27	0.84		Growth Rate (HEK-293T; [7]): 1; Growth Rate (HEK-293T; [10]): 0.8; Growth Rate (HEK-293T; [5]): 0.81; Growth Rate (HEK-293T; [6]): 0.83; Growth Rate (Fibroblast; [10]): 0.7; Growth Rate (Fibroblast; [3]): 0.59; Growth Rate (Fibroblast; [4]): 0.73
c1cc(OCCCN2CCCCC2)ccc1CN1CCCCC1 [JNJ-5207852]	0.82					0.68	-0.13			0.76		0.92		0.94				0.31	0.6	0.03	
COC(=O)[C@H](CCCNC(=N)N)NC(=O)CCCc1c(-c2ccccc2)[nH]c2c(F)cc(F)cc12.O=C(O)C(F)(F)F	0.4	0.32	0.5	0.39			-0.03		0.46		0.64		0.8			0.81	0.68		0.65	0.79	Growth Rate (HEK-293T; [7]): 0.87; Growth Rate (HEK-293T; [10]): 0.53; Growth Rate (HEK-293T; [5]): 0.64; Growth Rate (HEK-293T; [6]): 0.66; Growth Rate (HEK-293T; [4]): 0.53; Growth Rate (Fibroblast; [8]): 0.86; Growth Rate (Fibroblast; [3]): 0.38; Growth Rate (Fibroblast; [4]): 0.46
Cc1ccc(C(C)(O)c2nc3ccccc3s2)c(C)c1 (stereo unspecified)							-0.06			0.88			0.99	0.95		0.84		0.67		0.44	Growth Rate (HEK-293T; [7]): 0.98; Growth Rate (HEK-293T; [10]): 0.99; Growth Rate (Fibroblast; [8]): 0.92
CN(C)C(=O)Cn1cc(-c2ccc(-c3nnc4ccccn34)cc2)cn1					0.8	0.56	-0.47	0.08	0.68		0.46		0.79	0.91			0.7		0.94	0.68	Growth Rate (HEK-293T; [7]): 0.69; Growth Rate (HEK-293T; [10]): 0.74; Growth Rate (HEK-293T; [5]): 0.88; Growth Rate (HEK-293T; [6]): 0.78; Growth Rate (Fibroblast; [8]): 0.31; Growth Rate (Fibroblast; [10]): 0.37; Growth Rate (Fibroblast; [3]): 0.91; Growth Rate (Fibroblast; [4]): 0.74; Growth Rate (U2OS; [6]): 0.83
Cc1ccc(/C(=C\CN2CCCC2)c2ccccn2)cc1 [TRIPROLIDINE]	0.8				0.98	0.88			-0.54	0.77	0.38	0.88	0.76	0.96	0.94			0.96		0.54	Growth Rate (Fibroblast; [8]): 0.74; Growth Rate (U2OS; [6]): 0.83
CN1CCC(c2c[nH]c3ccc(O)cc23)CC1		0.98	0.89				0.81	0.6			0.97					0.25		0.11		0.18	Growth Rate (HEK-293T; [5]): 0.98; Growth Rate (HEK-293T; [4]): 0.89; Growth Rate (Fibroblast; [8]): -0.25
N[C@@H]1c2cccnc2[C@H](OC(=O)N2CCC(n3c(=O)[nH]c4ncccc43)CC2)CC[C@H]1c1cccc(F)c1F [RIMEGEPANT]	0.67			0.05	0.2	0.1	-0.42			0.88				0.96	0.87	0.87	0.99	-0.21	-0.02	0.86	Growth Rate (HEK-293T; [6]): 0.89; Growth Rate (Fibroblast; [10]): -0.05; Growth Rate (Fibroblast; [3]): 0.18; Growth Rate (Fibroblast; [4]): -0.18
CCN1/C(=C/C(C)=O)Sc2ccc(OC(C)=O)cc21	0.44	0.41	0.37	-0.29	0.17	0.38	-0.53	-1				0.89		0.97	0.93	0.37	0.5	-0.38	0.41		Growth Rate (HEK-293T; [7]): 0.98; Growth Rate (HEK-293T; [10]): 0.29; Growth Rate (HEK-293T; [5]): 0.49; Growth Rate (HEK-293T; [6]): 0.49; Growth Rate (HEK-293T; [4]): 0.53; Growth Rate (Fibroblast; [10]): 0.14
CC[S+]([O-])c1nc(-c2cccc(OCc3ccccc3)c2)cc(C(F)(F)F)n1 (stereo unspecified)	-0.82	-0.65	-0.43	-0.73	-0.48	-0.4		-1	-0.91	-0.17	-0.48	-0.16	-0.19	0.03	0.16		-0.65	-0.79	-0.52		Growth Rate (HEK-293T; [10]): -0.45; Growth Rate (HEK-293T; [5]): -0.27; Growth Rate (HEK-293T; [6]): -0.13; Growth Rate (HEK-293T; [4]): -0.24; Growth Rate (Fibroblast; [10]): -0.65; Growth Rate (Fibroblast; [4]): -0.5; Growth Rate (U2OS; [6]): -0.09

— ChEMBL document CHEMBL5058564, “EUbOPEN Chemogenomics Library 2 (Incucyte)” (2022)
